Test results as given in US10357577B2, “Bacterial nitroreductase enzymes and methods relating thereto” (AUCKLAND UNISERVICES LIMITED, priority 2010, dated 2019).

Legend:
[1] = test system: HCT-116 cells stably expressing E. coli NfsA; experiment: Flow cytometry / fluorescent imaging of EF5 retention in vitro; assay type: cell-based, human
Protocol: (§1) FIG. 11 illustrates the results of flow cytometry analysis and fluorescent imaging of stably-expressing E. coli NTR cells after in vitro EF5 exposure. 1×10^6 cells were seeded into a 6-well plate and incubated with 20 μM EF5 for 2 hrs at 37° C. Cells were fixed and stained, then analysed by flow cytometry and imaged using a Nikon2000 fluorescent microscope.
(§2) FIG. 13 illustrates the results of flow cytometry analysis of HCT-116 cells stably expressing E. coli NfsA and NfsB after in vitro dose-response to EF5 exposure. 1×10^6 cells were incubated with varying concentrations of EF5 in oxic conditions. Samples were fixed and stained with EF5 antibody Alexa 488 ELK3.51 at 100 μg/ml. Samples were then analysed on a Becton Dickinson FACscan flow cytometer. Values are mean±SEM of two independent experiments. Representative histograms at multiple EF5 dose levels.
(§3) In vitro: 1×10^6 cells were drug treated (EF5 or PIMO) for 1-2 hrs, harvested by trypsinisation, fixed with 4% buffered PFA (pH 7.4, 1 hr). In vivo: Tumour xenograft cells were isolated by enzymatic dissociation (2.5 mg/ml pronase, 1 mg/ml collagenase and 0.2 mg/ml DNAse) and immediately fixed with 4% buffered PFA (pH 7.4, 1 hr). and transferred to 70% ethanol (−20° C., overnight). Cells were resuspended in 1% BSA/PBS and permeabilised with 0.2% Triton X-100 (30 min, RT), blocked in 10% BSA/PBS (30 min, RT) and resuspended in primary antibody for 2 hr (37° C.). The primary antibody was either anti-EF5 mouse monoclonal (ELK 3.51) conjugated with CY5 or Alexa-488 diluted to 100 μg/ml in blocking buffer (according to instruction in Koch C., 2008, Rad Res, 169 (6): 677-688) or Hypoxyprobe-1 (Chemicon Int) mouse monoclonal anti-pimonidazole antibody (clone 4.3.11.3) conjugated with FITC and diluted 1:100 in blocking buffer. Cells were washed in blocking buffer and resuspended in blocking buffer containing 100 μg/ml RNAase and analysed using a Becton Dickinson FACscan flow cytometer (MA, USA) with Cell Quest software using forward scatter and side scatter to gate out cell debris and tumour cells. Integrated fluorescence measurements were recorded for 30,000 single non-debris events.
(§4) In vitro: 3-4 drops of cell suspension prepared for flow cytometry was added to a cytospin chamber containing a poly-I-lysine coated slide and spun for 5 minutes at low acceleration (500 rpm) in a cytospinner. Cells were left to dry and mounted with coverslips using Prolong Gold antifade (Invitrogen) and sealed with nail varnish.

[2] = test system: HCT-116 cells stably expressing E. coli NfsB; experiment: as above; assay type: cell-based, human
Protocol: as §1, §2, §3, §4

[3] = test system: nitroreductase NfsA-expressing HCT116 'activator' cells; experiment: MCL (multicellular layer) bystander experiment, NfsA-dependent activation; assay type: cell-based, human
Protocol: Displacement of the Target cell survival curve to the left (T to Tc) is indicative of the presence of a cytotoxic metabolite(s) able to diffusible out of the sensitive activator (A) cell population. The prodrug concentrations for 10% survival (C10) of target cells (wild-type cells) grown without activators (T), targets in co-culture (TC) and activators (nfsA-expressing cells) in co-culture (AC) were determined by interpolation. BEE-Bystander effect efficiency calculates the drugs bystander effect: ((Log C10T−Log C10TC)/(Log C10T−Log C10AC)).
The prodrug concentrations for 10% survival (C10) of target cells (wild-type cells) grown without activators (T), and targets in co-culture (TC) and activators (NTR-expressing cells) in co-culture (AC) can be determined. The bystander effect of a test prodrug is measured by the bystander effect efficiency which can be calculated using the algorithm ((Log C10T−Log C10TC)/(Log C10T−Log C10AC)).
Millicell-CM membrane inserts (Millipore) were coated in calf-skin collagen type III (Sigma-Aldrich) to facilitate cell attachment. […] After exposure, inserts were disaggregated (0.07% trypsin, 10 min, 37° C., followed by 100 μg/ml DNAase I (Sigma-Aldrich). Cells were counted, resuspended and plated in P60 dishes to determine clonogenic survival. To discriminate clonogenic activator (NTR+) from target (NTR−) colonies cells were plated in non-selective medium (total cells) and medium containing 1 μM puromycin (activator cells). Colonies were grown in a 37° C. 5% CO2 incubator for 10 days before staining with methylene blue (2 g/liter in 50% v/v aqueous ethanol). Colonies containing >50 cells were counted as clonogenic survivors. Surviving fractions for each population was calculated as the plating efficiency for drug-treated MCLs/untreated controls. The drug concentrations for 10% survival (C10) of target cells grown without activators (T), targets in co-culture (Tc) and activators in co-culture (Ac) was determined by interpolation.

[4] = cited from earlier work
E. coli NfsA = target: T1, E. coli NfsA (Escherichia coli, UniProt P17117); experiment: Purified enzyme kinetics (NADPH oxidation at 340 nm); assay type: biochemical; settings: 0.25 mM NADPH, varying EF5
T1 construct: his6; made in house
T1 sequence (P17117 whole entry): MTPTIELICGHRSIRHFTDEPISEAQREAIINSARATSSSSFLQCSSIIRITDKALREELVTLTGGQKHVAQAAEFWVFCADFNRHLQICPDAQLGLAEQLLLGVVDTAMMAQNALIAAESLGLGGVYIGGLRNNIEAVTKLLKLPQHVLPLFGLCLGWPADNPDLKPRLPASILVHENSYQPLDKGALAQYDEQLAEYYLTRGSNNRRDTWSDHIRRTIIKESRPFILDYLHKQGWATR
Protocol: FIG. 12 illustrates the purified enzyme kinetic data for eleven E. coli nitroreductases with EF5 as a substrate. Reactions contained 10 mM Tris-Cl (pH 7.0), 4% DMSO, 0.25 mM NADPH and varying EF5 concentrations. Reactions were initiated by addition of 10 μl enzyme and changes in absorbance were measured for 15 s at 340 nm on a spectrophotometer to monitor NTR-catalysed NADPH oxidation.
For EF5 and other 2-NI bio-imaging agents, steady-state enzyme kinetics with purified NTRs were assessed spectrophotometrically at 340 nm to monitor NTR catalyzed NADPH oxidation. The molar extinction co-efficient of NADPH (6,220 M^−1 cm^−1) was used for the calculation of enzyme activity. For PR-104A, reduction was measured directly at 400 nm (ε=6,000 M^−1 cm^−1); and for CB1954, reduction was measured directly at 420 nm (ε=1,200 M^−1 cm^−1). Reactions were performed in 100 μl in UVettes (Eppendorf), using the 2 mm light path length. Reactions contained 10 mM Tris-Cl (pH 7.0), 4% DMSO, 0.25 mM NADPH and varying EF5 or PR-104A concentrations. Reactions were initiated by addition of 10 μl enzyme and changes in absorbance were measured for 15 s (during linearity). For calculation of Km and kcat, substrate concentrations were varied from ˜0.2×Km to 5×Km. Non-linear regression analysis and Michaelis-Menten curve fitting was performed using Sigmaplot 10.0 (Systat Software Inc.).

[5] = increasing EF5 concentrations, oxic, monolayer

## O=C(Cn1ccnc1[N+](=O)[O-])NCC(F)(F)C(F)(F)F [EF5, 2-(2-nitro-1H-imidazol-1-yl)-N-(2,2,3,3,3-pentafluoropropyl)acetamide]
[1]; 20 μM EF5, 2 h, aerobic
  cellular retention of EF5 (in words): greatest retention
[1]; [5]
  retention of EF5, dose-response (in words): clearly superior
[2]; 20 μM EF5, 2 h, aerobic, compared to parental cells
  cellular retention of EF5 (in words): minor EF5 retention
[2]; [5]
  activity towards EF5, dose-response (in words): minimal activity
[3]; MCL of NTR-expressing and parental HCT116 cells
  bystander property (in words): zero bystander property
[3]; cold (radiolabel-free) EF5
  concentration-time giving 90% loss of viability for nfsA expressing HCT116 cells: 0.7 mM-hr
[3]; hyperoxic (95% O2) MCLs, at concentrations achievable in α-MEM+10% FBS, activator fraction differs per experiment
  estimated bystander effect efficiency (BEE): 0%
[4]; EF5 21 mg/kg, injected
  tolerability (in words): without any toxicities
[4]; cold EF5 9 mg/kg
  concentration-time achieved in human plasma: 0.89 mM-hr
E. coli NfsA
  enzyme kinetics with EF5 as substrate, rank among 11 E. coli NTRs (in words): highest kcat and kcat/Km ratio
